24 compounds from patent US12435061B2 (priority 2020, dated 2025) can be followed below.

In series [1] the target is hTRPV3 (Homo sapiens (Human), UniProt Q8NET8). Briefly: Whole-cell patch clamp, hTRPV3 Phase 1 / Phase 2 currents. The class given is cell-based. The gist of the method:
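Whole-cell recordings on induced TRPV3 cells replated on coverslips, held at −40 mV with 400 ms ramps from −120 to +100 mV every 5 s; currents read at −80 and +80 mV. Ringer's external solution; current activated by heating to ≥28 °C or 20 μM 2-APB.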
For orientation: Patch clamp records ionic current or voltage across a cell membrane.

The nature of series [2]: Aqueous solubility assay in Normal Ringer Solution. As to conditions: Normal Ringer Solution; for solubility at 40 min: saline or isotonic, kinetic from dmso stock; for Solubility Ringer (nM): room temperature. The protocol:
Following vortex and incubation for a sufficient time (e.g. 40 minutes at room temperature), solutions were filtered, quenched with acetonitrile, and analyzed by Liquid Chromotography. Solubility Limits were determined by comparison to a standard curve.

Setting [3] is: read-out: hTRPV3 (nM) (Phase 2).
[4] abbreviates: Phase 1 current, inward, whole-cell patch clamp, read-out: hTRPV3 Patch P1 Inwd.
Where [5] appears, read: Phase 1 current, read-out: hTRPV3 (nM) (Phase 1).
[6] abbreviates: Phase 2 current, inward, whole-cell patch clamp, read-out: hTRPV3 Patch P2 Inwd.
[7] abbreviates: Phase 2 current, read-out: hTRPV3 (nM) (Phase 2).

Converted amounts (≈) assume the structure as drawn. Structures can show the parent of a compound that is named as a salt. Where two headings read alike, the source gives them in different places. Bounds are passed on as bounds.

hTRPV3, sequence (Q8NET8 whole entry): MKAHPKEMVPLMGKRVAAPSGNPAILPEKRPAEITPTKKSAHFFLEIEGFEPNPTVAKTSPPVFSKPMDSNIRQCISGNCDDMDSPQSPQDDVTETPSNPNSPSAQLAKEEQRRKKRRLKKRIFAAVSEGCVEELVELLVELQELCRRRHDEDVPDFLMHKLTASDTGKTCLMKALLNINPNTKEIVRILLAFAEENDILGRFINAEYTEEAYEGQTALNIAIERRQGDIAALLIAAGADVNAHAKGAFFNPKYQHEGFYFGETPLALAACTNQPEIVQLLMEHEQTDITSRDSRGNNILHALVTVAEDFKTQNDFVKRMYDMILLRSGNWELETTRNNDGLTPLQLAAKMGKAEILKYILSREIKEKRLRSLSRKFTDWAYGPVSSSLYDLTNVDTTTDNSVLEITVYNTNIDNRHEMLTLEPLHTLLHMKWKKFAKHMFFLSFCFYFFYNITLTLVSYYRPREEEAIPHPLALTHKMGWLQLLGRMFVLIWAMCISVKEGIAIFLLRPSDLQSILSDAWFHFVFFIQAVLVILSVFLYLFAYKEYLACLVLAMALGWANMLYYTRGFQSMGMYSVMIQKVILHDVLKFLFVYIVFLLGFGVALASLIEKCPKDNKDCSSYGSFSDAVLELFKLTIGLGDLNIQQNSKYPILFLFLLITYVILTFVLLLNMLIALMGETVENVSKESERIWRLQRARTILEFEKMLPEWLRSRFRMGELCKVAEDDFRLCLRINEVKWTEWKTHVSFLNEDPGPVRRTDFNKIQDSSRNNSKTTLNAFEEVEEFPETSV

The solubility is the dissolved amount per volume that the medium holds. For the compound `Cl.NC(=O)c1cc(-c2cccnc2)ccc1N1CC[C@@H](Oc2ncccc2Cl)C1` [Compound 1-74, (R)-2-(3-(3-chloropyridin-2-yloxy)pyrrolidin-1-yl)-5-(pyridin-3-yl)benzamide hydrochloride], the IC50 is greater than 1000 nM in series [1] (hTRPV3 Patch P2 Inwd (nM)) and roughly 5040 nM in series [1] (setting [3]). In series [2], this compound yielded a solubility at 40 min greater than 13.5 µM.

Take `NC(=O)c1cc(-c2ccccc2)ccc1N1CC[C@@H](Oc2ncccc2Cl)C1` [Compound 1-75, (R)-4-(3-(3-chloropyridin-2-yloxy)pyrrolidin-1-yl)biphenyl-3-carboxamide]: the IC50 in series [1] (setting [4]) is greater than 1000 nM; in series [1] (setting [5]), roughly 2300 nM; in series [1] (setting [6]) it was 100 to 1000 nM; in series [1] (setting [7]), 342 nM. This compound yielded a solubility at 40 min in series [2] of 0.32 µM (≈ 0.126 µg/mL).

Turning to `CC(C)Oc1ccccc1N1CC[C@H](Oc2ccc3cc(Cl)ccc3n2)C1` [Compound 1-76, (S)-6-chloro-2-(1-(2-isopropoxyphenyl)pyrrolidin-3-yloxy)quinoline], the IC50 is greater than 1000 nM in series [1] (setting [4]), greater than 3200 nM in series [1] (setting [5]), greater than 1000 nM in series [1] (setting [6]) and roughly 4600 nM in series [1] (setting [7]). For the same compound, the “Solubility Ringer (nM)” value in series [2] was “BLQ”.

Regarding `NC(=O)c1cc(-c2cccnc2)ccc1N1CC[C@H](Oc2ccc(C(F)(F)F)cn2)C1` [Compound 1-80, (S)-5-(pyridin-3-yl)-2-(3-(5-(trifluoromethyl)pyridin-2-yloxy)pyrrolidin-1-yl)benzamide], the IC50 in series [1] (setting [4]) was greater than 1000 nM; in series [1] (setting [5]), greater than 3200 nM; in series [1] (setting [6]), greater than 1000 nM; in series [1] (setting [7]) it was roughly 5900 nM. The compound also displayed a solubility at 40 min in series [2] greater than 3.3 µM.

On to `NC(=O)c1cc(-c2ccccn2)ccc1N1CC[C@H](Oc2ccc(C(F)(F)F)cn2)C1` [Compound 1-81, (S)-5-(pyridin-2-yl)-2-(3-(5-(trifluoromethyl)pyridin-2-yloxy)pyrrolidin-1-yl)benzamide], for which the IC50 in series [1] (setting [4]) is greater than 1000 nM; in series [1] (setting [5]), greater than 3200 nM; in series [1] (setting [6]), greater than 1000 nM; in series [1] (setting [7]), 2190 nM. This compound gave a solubility at 40 min in series [2] of roughly 1.4 µM (≈ 0.6 µg/mL).

`NC(=O)c1cc(-c2ccncc2)ccc1N1CC[C@H](Oc2ccc(C(F)(F)F)cn2)C1` [Compound 1-83, (S)-5-(pyridin-4-yl)-2-(3-(5-(trifluoromethyl)pyridin-2-yloxy)pyrrolidin-1-yl)benzamide]: the IC50 in series [1] (setting [4]) is greater than 1000 nM; in series [1] (setting [5]), 2840 nM; in series [1] (setting [6]), greater than 1000 nM; in series [1] (setting [7]), 3350 nM. In addition, the solubility at 40 min in series [2] is greater than 3.9 µM.

With `N#Cc1cc(-c2ccccc2)ncc1N1CC[C@@H](Oc2ccc(C(F)(F)F)cn2)C1` [Compound 1-94], the “hTRPV3 (nM) (Phase 2)” value in series [1] (Phase 2 current) is on record as “Incomplete Block”. Also, the IC50 is roughly 117 nM in series [1] (Phase 2 current, inward, numeric value printed in cell (flagged), read-out: hTRPV3 Patch P2 Inwd) and roughly 117 nM in series [1] (setting [7]). Moreover, the “Solubility Ringer (nM)” value in series [2] is on record as “BLQ”.

`NS(=O)(=O)c1cc(-c2ccccc2)ccc1N1CC[C@@H](Oc2ccc(C(F)(F)F)cn2)C1` [Compound 1-102]: the IC50 in series [1] (setting [4]) and in series [1] (setting [6]) was greater than 1000 nM throughout. The same compound yielded a solubility at 40 min in series [2] of roughly 0.23 µM (≈ 0.107 µg/mL).

`NCc1cc(-c2ccccc2)ccc1N1CC[C@@H](Oc2ccc(C(F)(F)F)cn2)C1` [Compound 1-109, (R)-(4-(3-(5-(trifluoromethyl)pyridin-2-yloxy)pyrrolidin-1-yl)biphenyl-3-yl)methanamine hydrochloride]: the IC50 in series [1] (hTRPV3 Patch P1 Inwd (nM)) is greater than 1000 nM; in series [1] (hTRPV3 Patch P2 Inwd (nM)) it was greater than 1000 nM; in series [1] (read-out: hTRPV3 (nM) (Phase 1)), 1870 nM; in series [1] (setting [3]), 1930 nM. For the same compound, the solubility at 40 min in series [2] was greater than 2.95 µM.

With `OCc1cc(-c2ccccc2)ccc1N1CC[C@@H](Oc2ccc(C(F)(F)F)cn2)C1` [Compound 1-110, (R)-(4-(3-(5-(trifluoromethyl)pyridin-2-yloxy)pyrrolidin-1-yl)biphenyl-3-yl)methanol], the IC50 in series [1] (setting [4]) is 100 to 1000 nM; in series [1] (setting [5]), 710 nM; in series [1] (setting [6]), 100 to 1000 nM; in series [1] (setting [7]), 685 nM. Also, the “Solubility Ringer (nM)” value in series [2] is on record as “BLQ”.

For `N#Cc1ccc(O[C@H]2CCN(c3ccc(-c4ccccc4)cc3CO)C2)nc1` [Compound 1-143, (S)-6-(1-(3-(hydroxymethyl)biphenyl-4-yl)pyrrolidin-3-yloxy)nicotinonitrile], the IC50 in series [1] (setting [4]) is 100 to 1000 nM; in series [1] (setting [5]) it was 337 nM. The compound also came in with a solubility at 40 min in series [2] of 1.4 µM (≈ 0.52 µg/mL).

For the compound `N#Cc1ccccc1-c1ccc(N2CC[C@H](Oc3ccc(C(F)(F)F)cn3)C2)c(CO)c1` [Compound 1-155], the IC50 in series [1] (setting [4]) lay within 100 to 1000 nM. In series [2], the “Solubility Ringer (nM)” value is listed as “BLQ”.

On to `OCc1cc(-c2ccccc2)ncc1N1CC[C@H](Oc2ccc(C(F)(F)F)cn2)C1` [Compound 1-158], for which the IC50 in series [1] (setting [4]) is 100 to 1000 nM; in series [1] (setting [5]), 773 nM; in series [1] (setting [6]) it was 100 to 1000 nM; in series [1] (setting [7]), 747 nM. The same compound came in with a solubility at 40 min in series [2] of roughly 2 µM (≈ 0.831 µg/mL).

Regarding `NC(=O)c1ccccc1-c1ccc(N2CC[C@H](Oc3ccc(C(F)(F)F)cn3)C2)c(CO)c1` [Compound 1-159, (S)-3′-(hydroxymethyl)-4′-(3-(5-(trifluoromethyl)pyridin-2-yloxy)pyrrolidin-1-yl)biphenyl-2-carboxamide], the IC50 in series [1] (setting [4]) was greater than 1000 nM; in series [1] (setting [5]) it was greater than 3200 nM; in series [1] (setting [6]), greater than 1000 nM; in series [1] (setting [7]), greater than 3200 nM. The solubility at 40 min in series [2] was greater than 16.6 µM.

On to `CN(C)C(=O)c1ccccc1-c1ccc(N2CC[C@H](Oc3ccc(C(F)(F)F)cn3)C2)c(CO)c1` [Compound 1-167, (S)-3′-(hydroxymethyl)-N,N-dimethyl-4′-(3-(5-(trifluoromethyl)pyridin-2-yloxy)pyrrolidin-1-yl)biphenyl-2-carboxamide], for which the IC50 in series [1] (setting [4]) is greater than 1000 nM; in series [1] (setting [5]) it was roughly 1290 nM; in series [1] (setting [6]), greater than 1000 nM; in series [1] (setting [7]) it was greater than 3200 nM. Moreover, the solubility at 40 min in series [2] is greater than 12.6 µM.

As for `CC(O)c1ccccc1-c1ccc(N2CC[C@H](Oc3ccc(C(F)(F)F)cn3)C2)c(CO)c1` (stereo partly drawn) [Compound 1-171, 1-(3′-(hydroxymethyl)-4′-((S)-3-(5-(trifluoromethyl)pyridin-2-yloxy)pyrrolidin-1-yl)biphenyl-2-yl)ethanol], the IC50 is 100 to 1000 nM in series [1] (setting [4]), 740 nM in series [1] (setting [5]), 100 to 1000 nM in series [1] (setting [6]) and 636 nM in series [1] (setting [7]). For the same compound, the solubility at 40 min in series [2] was greater than 5.35 µM.

For the compound `OCc1ccccc1-c1ccc(N2CC[C@H](Oc3ccc(C(F)(F)F)cn3)C2)c(CO)c1` [Compound 1-174, (S)-(4′-(3-(5-(trifluoromethyl)pyridin-2-yloxy)pyrrolidin-1-yl)biphenyl-2,3′-diyl)dimethanol], the IC50 in series [1] (setting [4]) was 100 to 1000 nM; in series [1] (setting [5]), greater than 320 nM; in series [1] (setting [6]), greater than 1000 nM; in series [1] (setting [7]), greater than 3200 nM. This compound also displayed a solubility at 40 min in series [2] greater than 0.67 µM.

Consider `OC[C@@H]1C[C@@H](Oc2ccc(C(F)(F)F)cn2)CN1c1ccc(-c2ccccc2)cc1` [Compound 1-175], for which the IC50 in series [1] (setting [4]) was greater than 1000 nM; in series [1] (setting [5]), greater than 3200 nM; in series [1] (setting [6]) it was greater than 1000 nM; in series [1] (setting [7]), greater than 3200 nM. In series [2], this compound showed a solubility at 40 min of roughly 0.68 µM (≈ 0.282 µg/mL).

Consider `N#Cc1ccccc1-c1ccc(N2CC[C@H](Oc3ccc(C(F)(F)F)cn3)C2)c(CO)n1` [Compound 1-197, (S)-2-(6-(hydroxymethyl)-5-(3-(5-(trifluoromethyl)pyridin-2-yloxy)pyrrolidin-1-yl)pyridin-2-yl)benzonitrile], for which the figures for the IC50 in series [1] (setting [4]) and in series [1] (setting [5]) were 10 to 100 nM and roughly 38.5 nM, respectively. This compound also registered a solubility at 40 min in series [2] of roughly 0.4 µM (≈ 0.176 µg/mL).

Regarding `Cc1ccc(O[C@H]2CCN(c3ccc(Oc4ccccc4C)nc3CO)C2)nc1` [Compound 1-203, (S)-(3-(3-(5-methylpyridin-2-yloxy)pyrrolidin-1-yl)-6-(o-tolyloxy)pyridin-2-yl)methanol], the IC50 was greater than 1000 nM in series [1] (setting [4]), roughly 5050 nM in series [1] (setting [5]), greater than 1000 nM in series [1] (setting [6]) and 3270 nM in series [1] (setting [7]). This compound also came in with a solubility at 40 min in series [2] of roughly 1.4 µM (≈ 0.548 µg/mL).

On to `CCc1ccccc1-c1ccc(N2CC[C@H](Oc3ncccc3F)C2)c(CO)n1` [Compound 1-204, (S)-(6-(2-ethylphenyl)-3-(3-(3-fluoropyridin-2-yloxy)pyrrolidin-1-yl)pyridin-2-yl)methanol], for which the results for the IC50 in series [1] (setting [4]) and in series [1] (setting [5]) were greater than 1000 nM and 2670 nM, respectively. This compound also displayed a solubility at 40 min in series [2] greater than 1.8 µM.

`COc1ccccc1-c1ccc(N2CC[C@H](Oc3ccc(F)cn3)C2)c(CO)n1` [Compound 1-209, (S)-(3-(3-(5-fluoropyridin-2-yloxy)pyrrolidin-1-yl)-6-(2-methoxyphenyl)pyridin-2-yl)methanol]: the IC50 is greater than 1000 nM in series [1] (setting [4]) and 3470 nM in series [1] (setting [5]). Besides, the solubility at 40 min in series [2] is roughly 2.3 µM (≈ 0.909 µg/mL).

Turning to `OCc1cc(Oc2cccc(Cl)c2)ccc1N1CC[C@H](Oc2ncccc2Cl)C1` [Compound 1-248, (S)-(5-(3-chlorophenoxy)-2-(3-(3-chloropyridin-2-yloxy)pyrrolidin-1-yl)phenyl)methanol], the values for the IC50 in series [1] (setting [4]) and in series [1] (setting [5]) were 10 to 100 nM and 12.3 nM, respectively. For the same compound, the “Solubility Ringer (nM)” value in series [2] was “BLQ”.

Turning to `OCc1cc(Oc2ccc(Cl)cc2)ccc1N1CC[C@H](Oc2ncccc2Cl)C1` [Compound 1-249, (S)-(5-(4-chlorophenoxy)-2-(3-(3-chloropyridin-2-yloxy)pyrrolidin-1-yl)phenyl)methanol], the IC50 in series [1] (setting [4]) is 10 to 100 nM; in series [1] (setting [5]), 22.1 nM. The “Solubility Ringer (nM)” value in series [2] is “BLQ”.
